Reference: patent publication US20110124006A1, “METHOD FOR SCREENING OF THERAPEUTIC AGENT FOR CANCER” (Hismitsu Pharmaceutical Co., Inc., priority 2008, published 2011)

Assays:
SK-N-BE cells [1] = experiment: MTT assay, proliferation of SK-N-BE cells in the presence of EGF; type: cell-based; details: 10 ng/ml EGF plus 5 μM inhibitor, vs EGF-only control, T-test p<0.01
Experimental: SK-N-BE cells were cultured in the presence of 10 ng/ml EGF (control, which corresponds to “mock” in FIG. 26), in the presence of 10 ng/ml EGF and 5 μM of EGFR inhibitor AG1478, as well as in the presence of 10 ng/ml EGF and 5 μM of Ras inhibitor FTI277, and the cell proliferation was quantified by the MTT assay over time. FIG. 26 is a graph showing the proliferation of cells.

MYCN protein expression = experiment: Immunoblot of MYCN protein induced by NLRR1 expression in SK-N-BE cells; type: cell-based; details: NLRR1 plasmid 1000 ng/ml, 12 hours, 1 μM AG1478 or 2 μM U0126
Experimental: An expression plasmid of NLRR1 tagged with a myc tag was introduced into SK-N-BE cells at the concentration of 1000 ng/ml. The cells were cultured for 12 hours in the presence of 1 μM of EGFR inhibitor AG1478 or 2 μM of ERK1/2 inhibitor U0126, and then the cells were collected and subjected to an immunoblot method using an anti-myc antibody, an anti-MYCN antibody and an anti-actin antibody. FIG. 34 is a photograph showing a result of an immunoblot.

MYCN expression [2] = experiment: Immunoblot of EGF-induced MYCN expression in SK-N-BE cells with pathway inhibitors; type: cell-based; details: six hours, 10 ng/ml EGF, inhibitor concentrations shown in FIG. 27
Experimental: SK-N-BE cells were cultured for six hours in the presence of 10 ng/ml EGF and in the presence of an EGFR inhibitor AG1478, a Ras inhibitor FTI277, an ERK1/2 inhibitor U0126, a PI3Kinase inhibitor LY294002, a INK inhibitor SP600125 or a p38MAPK inhibitor SB203580 in each concentration shown in FIG. 27. Next, respective cells were collected, and the expression of MYCN was analyzed by an immunoblot method using an anti-MYCN antibody and an anti-actin antibody. FIG. 27 is a photograph showing a result of an immunoblot.

[3] = tested on: SK-N-BE cells forced to express NLRR1; details: SK-N-BE cells forced to express NLRR1, presence vs absence of U0126, over time
Experimental: SK-N-BE cells that were forced to express NLRR1 were cultured in the presence and absence of ERK1/2 (ERK1 and ERK2) inhibitor, U0126. Furthermore, as a control, SK-N-BE cells into which a plasmid encoding NLRR1 was not introduced were cultured in the absence of U0126. The proliferation of these cells was quantified by an MTT assay over time. FIG. 23 is a graph showing a proliferation of cells. In the drawing, A denotes the proliferation of SK-N-BE cells forced to express NLRR1; B denotes the proliferation of SK-N-BE cells forced to express NLRR1 in the presence of U0126; and C denotes the proliferation of control cells.

[4] = tested on: phosphorylation of EGFR and ERK; experiment: Western blotting of EGFR and ERK phosphorylation in MCF-7 cells forced to express NLRR1; type: cell-based; details: MCF-7 cells forced to express NLRR1, 10 mM cyclodextrin 30 minutes 37° C., then EGF three minutes
Experimental: The effect of NLRR1 on EGF signal transduction in cells treated with cyclodextrin (methyl-β-cyclodextrin, mβCD) that inhibits lipid raft was examined. FIG. 39 is a photograph showing a result of an immunoblot. […] The cells were washed with the medium, and cultured for three minutes in a medium containing EGF with different concentrations. Then, the phosphorylation of EGFR and ERK was analyzed by Western blotting. With the expression of NLRR1, the enhancement of phosphorylation of EGFR and ERK by EGF was detected. […] From the result, it has been clarified that the enhancement of an EGF signal by NLRR1 needs the structure of lipid raft. Thus, it is thought that treatment of cancer using the combination of an antibody inhibiting NLRR1 and an inhibitor of lipid raft is effective.

SK-N-BE cells [5] = experiment: MTT assay, proliferation of SK-N-BE cells after siRNA introduction; type: cell-based; details: vs negative control siRNA, day 4 and day 5 p<0.01
Experimental: (§1) To SK-N-BE cells derived from neuroblastoma, siRNA against NLRR1 was introduced so as to suppress the expression of NLRR1. As the siRNA, RNA fragment of the base sequences shown SEQ ID NOs: 3 and 4 were annealed and used.
(§2) After siRNA was introduced, the cells were cultured, and the cell proliferation was quantified by the MTT assay over time. As a control, cells into which Silencer (registered trademark) Negative Control #1 siRNA (Ambion) was introduced were used. FIG. 11 is a graph showing the proliferation of cells. […] FIG. 12 is a photograph of an immunoblot in which the expression of NLRR1 in the cells into which siRNA against NLRR1 was introduced and the control cells were detected by using an anti-NLRR1 rabbit polyclonal antibody. The anti-NLRR1 rabbit polyclonal antibody was prepared by immunizing a rabbit with a synthetic peptide corresponding to 693-712 residues of an amino acid sequence of NLRR1 (SEQ ID NO: 2) as an antigen. The result when an anti-actin antibody was used as the loading control is also shown.

[6] = tested on: SK-N-AS cell line continuously expressing NLRR1; experiment: Flow cytometry of sub-G1 cells (apoptosis) under serum-free conditions; type: cell-based; details: SK-N-AS line continuously expressing NLRR1, serum-free 36 hours, PI staining
Excerpt: It is known that in the SK-N-AS neuroblastoma cell line, cell death is induced when serum is removed, and that the number of sub-G1 cells is increased from the flow cytometry analysis. SK-N-AS cells into which an empty vector plasmid was introduced (corresponding to “mock” on the left in FIG. 17), a cell line continuously expressing NLRR1 obtained by introducing a plasmid encoding NLRR1 into SK-N-AS cells (corresponding to “+NLRR1” in the middle of FIG. 17), and cells obtained by introducing siRNA against NLRR1 into this cell line continuously expressing NLRR1 (corresponding to “+siRNA+NLRR1” on the right of FIG. 17) were PI stained before and after the cells were cultured under the serum-free conditions for 36 hours, and analyzed by flow cytometry. The rate of the sub-G1 cells was evaluated as a rate of apoptosis. […] FIG. 18 is a graph showing the proportion of the number of sub-G1 cells to the total number of cells before and after culturing under the serum free conditions of respective cells based on the results of FIG. 17, in which the unit of the ordinate axis is %.

SHEP21N cells = experiment: MTT assay, proliferation of SHEP21N cells forced to express MYCN; type: cell-based; details: absence of tetracycline (expression of MYCN increased)
Excerpt: To SHEP21N cells that were forced to express MYCN in the absence of tetracycline, siRNA against NLRR1 was introduced, and the cell proliferation was quantified by the MTT assay over time. FIG. 15 is a graph showing the proliferation of cells. In the absence of tetracycline (expression of MYCN was increased), the proliferation of cells was promoted as compared with the case in the presence of tetracycline (expression of MYCN was suppressed). When Silencer (registered trademark) Negative Control #1 siRNA was introduced in the absence of tetracycline (expression of MYCN was increased) as a control, the proliferation rate of cells was not changed.

[7] = tested on: SK-N-BE cells, NLF cells, SH-SY5Y cells, SMS-SAN cells; experiment: MTT assay, EGF-induced proliferation of neuroblastoma-derived cells; type: cell-based; details: SK-N-BE cells with siRNA, 10 ng/ml EGF
Experimental: SK-N-BE cells, NLF cells, SH-SY5Y cells, SMS-SAN cells, which are cell lines derived from neuroblastoma, and SK-N-BE cells into which siRNA against NLRR1 was introduced were cultured in the presence and absence of 10 ng/ml EGF, and the cell proliferation was quantified by the MTT assay over time. FIG. 28 is a graph showing the cell proliferation, showing the change fold ratio of the proliferation of cells in the presence of EGF to the proliferation of cells in the absence of EGF.

NLRR1 = experiment: Immunoblot of NLRR1 expression after siRNA introduction; type: cell-based; details: SK-N-BE cells, anti-NLRR1 rabbit polyclonal antibody
Experimental: as §1, §2

MYCN expression [8] = experiment: Immunoblot of EGF-induced MYCN expression in SK-N-BE cells after siRNA introduction; type: cell-based; details: 10 hours, 10 ng/ml EGF
Experimental: SK-N-BE cells, SK-N-BE cells into which siRNA against NLRR1 was introduced, and SK-N-BE cells into which Silencer (registered trademark) Negative Control #1 siRNA was introduced were cultured for 10 hours in the presence of 10 ng/ml EGF, and the cells were collected. Next, these cells were subjected to an immunoblot method using an anti-MYCN antibody, an anti-NLRR1 rabbit polyclonal antibody and an anti-actin antibody, and expression of MYCN and NLRR1 in the protein level was detected. FIG. 16 is a photograph showing a result of immunoblot. The result of the cells into which control siRNA was introduced corresponds to “mock” in FIG. 16.

| Molecule | proliferation of cells (MTT assay) (SK-N-BE cells [1]) | expression induction of MYCN protein by the expression of NLRR1 (immunoblot) (MYCN protein expression) | expression increase of MYCN by the induction of EGF (immunoblot) (MYCN expression [2]) | further results |
| --- | --- | --- | --- | --- |
| COc1cc2ncnc(Nc3cccc(Cl)c3)c2cc1OC [AG1478] | the proliferation of cells is suppressed | expression induction of MYCN protein by the expression of NLRR1 is suppressed | expression increase of MYCN by the induction of EGF was inhibited | – |
| COC(=O)[C@H](CCSC)NC(=O)c1ccc(NC[C@@H](N)CS)cc1-c1ccccc1 [FTI277] | the proliferation of cells is suppressed | – | expression increase of MYCN by the induction of EGF was inhibited | – |
| C[S+]([O-])c1ccc(-c2nc(-c3ccncc3)c(-c3ccc(F)cc3)[nH]2)cc1 (stereo not shown) [SB203580] | – | – | expression increase of MYCN by the induction of EGF was not inhibited | – |
| N#CC(=C(/N)Sc1ccccc1N)/C(C#N)=C(\N)Sc1ccccc1N [U0126] | – | expression induction of MYCN protein by the expression of NLRR1 is suppressed | expression increase of MYCN by the induction of EGF was inhibited | proliferation of cells (MTT assay) [3]: the cell proliferation was suppressed |
| methyl-β-cyclodextrin [mβCD] | – | – | – | enhancement of phosphorylation of EGFR and ERK by NLRR1 [4]: the enhancement of phosphorylation of EGFR and ERK by NLRR1 was not observed |
| siRNA against NLRR1: annealed RNA fragments of SEQ ID NOs: 3 and 4, suppresses the expression of NLRR1 (chain 1 UCUUGGUUGAGCUGUGUAGUU; chain 2 AACUACACAGCUCAACCAAGA; RNA, backbone not given here; listed as Homo sapiens) | – | – | – | proliferation of cells (MTT assay) (SK-N-BE cells [5]): the proliferation of cells is suppressed; apoptosis (proportion of sub-G1 cells) [6]: the increase in the apoptosis was observed; proliferation of cells due to increased MYCN expression (MTT assay) (SHEP21N cells): the proliferation of cells due to the increase in the MYCN expression did not occur; EGF-induced cell proliferation (MTT assay, fold ratio with vs without EGF) [7]: EGF-induced cell proliferation was remarkably suppressed; expression of NLRR1 (immunoblot) (NLRR1): the expression of NLRR1 was suppressed; induction of the expression of MYCN by EGF treatment (immunoblot) (MYCN expression [8]): the induction of the expression of MYCN by EGF treatment was suppressed |
